Experimental data as given in PubChem BioAssay AID1626 (SRMLSC, 2009).

Tested on: M. tuberculosis H37Rv growth inhibition
Test: M. tuberculosis H37Rv growth inhibitors, H37Rv strain (AID 1626)
Settings: for IC90: measured here: IC90 against H37Rv; for CC50: measured here: Vero cell cytotoxicity

Row | SMILES | IC50 [µM] | IC90 [µM] | CC50 [µM]
1 | CSc1ccc(/C=C/C(=O)c2ccc(O)cc2)cc1 | 9.87 | 13.7 | 30.7
2 | CSc1ccc(N=Nc2c(C)[nH]n(C)c2=O)cc1 | 7.43 | > 100 | > 40
3 | O=C(CC(Nc1ccc(F)cc1)C(=O)OCC(=O)c1cccs1)c1ccccc1 (stereo not given) | 67.1 | > 100 | –
4 | CCOC(=O)c1ccc(Nc2cc3ccccc3c(=O)[nH]2)cc1 | 13.4 | > 100 | –
5 | Cc1[nH]c2ccccc2c1C1=NNC(=Nc2ccc(F)cc2)SC1 | 13.3 | 49.8 | > 40
6 | Nc1[nH]ncc1-c1ccc(Cl)cc1 | 21.6 | > 100 | –
7 | COc1cccc2c1C(=O)c1c(O)c3c(c(O)c1C2=O)C[C@@](O)(C(=O)CO)C[C@@H]3O[C@H]1C[C@H](N)[C@@H](O)[C@H](C)O1 | 14.9 | 26.4 | 7.47
8 | OCCN1CCN(CC(O)COc2ccc(C34CC5CC(CC(C5)C3)C4)cc2)CC1 (stereo not given) | 9.56 | 15.2 | 9.85
9 | Cc1nc(NCc2ccc3c(c2)OCO3)c2oc3ccccc3c2n1 | 7.7 | 21.8 | –
10 | Cc1ccc(C(O)(c2ccccc2)c2ccccc2C(C)N(C)C)c(C)c1 (stereo not given) | 11.7 | 19.9 | 39
11 | CC(C)OC(=O)c1ccc(N)cc1 | 30.1 | > 100 | –
12 | CC(=O)Oc1c(-c2ccco2)oc2ccccc2c1=O | 51.4 | > 100 | –
13 | CCc1ccc(-c2nn(-c3ccccc3)cc2CSC(=N)N)cc1 | 6.73 | 10.7 | 14
14 | O=C(/C=C/c1cccc2ccccc12)c1ccncc1 | 8.2 | 12.7 | > 40
15 | COc1cccc(Nc2c3c(nc4c(-c5ccccc5)c(C)nn24)CCC3)c1 | 3.4 | 5.95 | > 40
16 | O=C(Nc1nccs1)c1cc2c(s1)CCCCC2 | 5.64 | 25 | > 40
17 | O=C(Oc1ccc(/C=N/O)cc1)c1ccccc1Cl | 28.5 | > 100 | –
18 | CCCn1c(NC(=O)c2ccccc2)nc2ccccc21 | 3.89 | > 100 | > 40
19 | Cc1nc2ccc(N)cc2s1 | 0.6 | > 100 | –
20 | O=C(CSc1ccncc1)Nc1ccc2ccccc2c1 | 1.15 | > 100 | –
21 | Cc1sc2nc[nH]c(=S)c2c1-c1ccccc1 | 32.3 | > 100 | > 40

Row | SMILES | IC50 [µM] | IC90 [µM] | CC50 [µM]
22 | CCOC(=O)Cn1c(-c2ccccc2)ccc(C#N)c1=O | 4 | > 100 | –
23 | CC(C)(C)c1ccc(-c2nc(NCc3cccnc3)c3ccccc3n2)cc1 | 4.81 | 7.46 | > 40
24 | CCc1ccc(CCC(=O)Nc2ccc(C)c(C)c2)o1 | 14.8 | > 100 | –
25 | COCCn1nnnc1C(c1cc2cc(OC)ccc2[nH]c1=O)N1CCC(Cc2ccccc2)CC1 (stereo not given) | 7.52 | 15.8 | –
26 | O=C1Nc2ccccc2/C1=N\N=C\C1=C(N2CCOCC2)C(=C\c2ccccc2)/CC1 | 1.29 | 1.86 | > 40
27 | CCCCNC(=O)Nc1nnc(-c2ccc(Cl)cc2)o1 | 1.33 | 3.59 | –
28 | Cc1c(C(=O)Nc2nc3ccccc3[nH]2)oc2ccccc12 | 1.29 | 4.5 | > 40
29 | COc1ccc(NCc2n[nH]nc2-c2ccccc2)cc1Cl | 25.7 | > 100 | > 40
30 | CCCCCCn1c(=O)c(C(=O)Nc2nc(CC(=O)OCC)cs2)c(O)c2ccccc21 | < 0.195 | < 0.195 | 4.53
31 | O=S1(=O)CCC(N=Cc2ccc(-c3ccc(Cl)cc3)o2)C1 (stereo not given) | 6.54 | > 100 | –
32 | COC(=O)[C@H](NC(=O)c1cc(-c2ccccc2)nc2ccccc12)c1ccccc1 | 1.69 | 3.37 | –
33 | Cc1ccc(C(=O)Oc2oc(-c3ccccc3)nc2C=Nc2ccc(N(C)C)cc2)cc1 | – | – | > 40
34 | COc1ccccc1N1CCN(c2nc(C)nc3c2oc2ccccc23)CC1 | 1.74 | 3.89 | 5.01
35 | Cc1ccc2c(Cl)cc(Cl)c(OCC(=O)NC(C)(C)C)c2n1 | 11.6 | > 100 | > 40
36 | O=C(COc1cccc(Cl)c1)Nc1ccc2c(c1)CCC2 | 22.4 | > 100 | –
37 | COc1cccc2c1C(=O)c1c(O)c3c(c(O)c1C2=O)C[C@@](O)(C(=O)CO)C[C@@H]3O[C@H]1C[C@H](N)[C@H](O)[C@H](C)O1 | 13 | > 100 | 7.25
38 | Cc1ccn2c(Nc3ccccc3C)c(-c3ccccn3)nc2c1 | 1.42 | 1.59 | 3.12
39 | COC(=O)CCCC(=O)Nc1ccc(Cl)c(Cl)c1 | 23.1 | > 100 | –
40 | COc1ccc(NC(=O)CSC2=NCCN2)cc1 | – | > 100 | –
41 | CCOC(=O)c1c(-c2ccccc2)csc1NC(=O)c1cc2ccccc2oc1=O | < 0.195 | 0.623 | > 40
42 | FC(F)(F)c1cccc(Sc2nc(-c3ccccc3)nnc2C(F)(F)F)c1 | 7.32 | > 100 | > 40
